Measurements as given in patent US8507411B2, “Neoglycorandomization and digitoxin analogs” (priority 2004, dated 2013).
Read-outs that look alike come from different tables or passages of the source.

What was measured:
Hep3B = test: High-throughput calcein AM cytotoxicity assay, Hep3B; assay type: cell-based, human; details: Hep 3B cells
From the text: (§1) Standard errors are depicted with error bars.

MCF7 = test: High-throughput calcein AM cytotoxicity assay, MCF7; assay type: cell-based, human; details: MCF7 cells
From the text: as §1

NCI-H460 = test: High-throughput calcein AM cytotoxicity assay, NCI-H460; assay type: cell-based, human; details: NCI-H460 cells
From the text: as §1

SK-OV-3 = test: cells; assay type: cell-based, human; details: SK-OV-3 cells
From the text: (§2) In the assay, live cells were distinguished by the presence of a ubiquitous intracellular enzymatic activity which converts the non-fluorescent cell-permeable molecule calcein AM to the intensely fluorescent molecule calcein, which is retained within live cells. The IC50 value for each library member represents at least six replicates of dose-response experiments conducted over five concentrations using two-fold dilutions. […] Standard errors are depicted with error bars. Numerical values and corresponding error values can be found in Table 4. Du145: […]; MCF7: human breast carcinoma; HCT-116: human colon carcinoma, Hep3B: human liver carcinoma; SF-268: human CNS glioblastoma; SK-OV-3: human ovary adenocarcinoma; NCI-H460: human lung carcinoma; A549: human lung adenocarcinoma; NCI/ADR-RES: human breast carcinoma; NmuMG: mouse mammary normal epithelial.
(§3) Cell Culture: All cell lines except NmuMG were maintained in RPMI 1640 medium from InVitrogen (Cat No. 11875-085) supplemented with 10% w/v fetal bovine serum (FBS) from ICN (Cat No. 2916154) and penicillin-streptomycin (PS) (100 U/mL and 100 μg/mL) from InVitrogen (Cat No. 15140-122). NmuMG cells were maintained in DMEM medium from InVitrogen (Cat No. 11965-084) supplemented with 10% w/v fetal bovine serum (FBS) from ICN (Cat No. 2916154), 10 μg/ml insulin (InVitrogen Cat No 12585-014), and penicillin-streptomycin (PS) (100 U/mL and 100 μg/mL) from InVitrogen (Cat No. 15140-122). Cells were harvested by trypsinization using 0.25% w/v trypsin and 0.1% w/v EDTA from InVitrogen (Cat No. 15-050-057) and then counted in a hemocytometer in duplicate with better than 10% agreement in field counts. Cells were plated at a cell density of 10,000-15,000 cells/well of each Corning Costar 96-well black tissue culture treated microtiter plate (Fisher Cat No. 07-200-627). Cells were grown for 1 h at 37° C., with 5% CO2 in a humidified incubator to allow cell attachment to occur before compound addition.
(§4) Library Member Handling and Preparation for Cytotoxicity Assays: Library members were stored at −20° C. under dessicating conditions before the assay. Library member stocks (100×) were prepared in Corning Costar polypropylene 96-well V-bottom polypropylene microtiter plates (Fisher Cat No. 07-200-695). Five serial 1:2 dilutions were made with anhydrous DMSO at 100× the final concentration used in the assay.
(§5) Library Member Addition: The library member-containing plates were diluted 1:10 with complete cell culture media. The 10× stocks (10 μL) were added to the attached cells using a Biomek FX liquid handler (Beckman-Coulter). Library member stocks (10 μL) were added to 90 μL of cells in each plate to insure full mixing of stocks with culture media using a Beckman FX liquid handler with 96-well head.
(§6) Determination of Cytotoxicity: Cells were incubated with the library members for 72 h before fluorescence reading. Test plates were removed from the incubator and washed 1× in sterile PBS to remove serum containing calcium esterases. Calcein AM reagent (30 μL, […]) was added and the cells were incubated for 30 min at 37° C. Plates were read for emission using a fluorescein filter (excitation 485 nm, emission 535 nm).
(§7) IC50 Calculation: For each library member, at least six dose response experiments were conducted. […] To calculate IC50, percent inhibitions were plotted as a function of log [concentration] and then fit to a four-parameter logistic model that allowed for a variable Hill slope using XLfit 4.1.
(§8) Cytotoxicity Assays. All cell lines except NmuMG were maintained in RPMI 1640 medium supplemented with 10% w/v fetal bovine serum (FBS) and penicillin-streptomycin (PS) (100 U/mL and 100 μg/mL).

NCI/ADR-RES = test: cells; assay type: cell-based, human; details: NCI/ADR-RES cells
From the text: as §2, §3, §4, §5, §6, §7, §8

SF-268 = test: cells; assay type: cell-based, human; details: SF-268 cells
From the text: as §2, §3, §4, §5, §6, §7, §8

A549 = test: High-throughput calcein AM cytotoxicity assay, A549; assay type: cell-based, human; details: A549 cells
From the text: as §1

HCT-116 = test: High-throughput calcein AM cytotoxicity assay, HCT-116; assay type: cell-based, human; details: HCT-116 cells
From the text: as §1

NmuMG = test: cells; assay type: cell-based, mouse
From the text: as §2, §3, §4, §5, §6, §7, §8

Du145 = test: High-throughput calcein AM cytotoxicity assay, Du145; assay type: cell-based, human; details: Du145 cells
From the text: as §1

[1] = NmuMG cells (mouse mammary normal epithelial control line), read-out: IC50
[2] = NmuMG mouse mammary normal epithelial control line, read-out: IC50, NmuMG

Compound	IC50 (Hep3B; read-out: IC50)	IC50 (MCF7; read-out: IC50)	IC50 (NCI-H460; read-out: IC50)	IC50 (SK-OV-3; read-out: IC50)	IC50 (NCI/ADR-RES; read-out: IC50)	IC50 (SF-268; read-out: IC50)	IC50 (A549; read-out: IC50)	IC50 (HCT-116; read-out: IC50)	IC50 (NmuMG; [1])	IC50 (Du145; read-out: IC50)	IC50 (Hep3B; read-out: IC50, Hep 3B)	IC50 (MCF7; read-out: IC50, MCF7)	IC50 (NCI-H460; read-out: IC50, NCI-H460)	IC50 (SK-OV-3; read-out: IC50, SK-OV-3)	IC50 (NCI/ADR-RES; read-out: IC50, NCI/ADR-RES)	IC50 (SF-268; read-out: IC50, SF-268)	IC50 (A549; read-out: IC50, A549)	IC50 (HCT-116; read-out: IC50, HCT-116)	IC50 (NmuMG; [2])	IC50 (Du145; read-out: IC50, Du145)
CON(C1CCC2(C)C(CCC3C2CCC2(C)C(C4=CC(=O)OC4)CCC32O)C1)C1OC(CO)C(O)C(O)C1O [39α, L-taloside]	> 25 µM	> 25 µM	> 25 µM	> 25 µM	> 25 µM	> 25 µM	> 25 µM	> 25 µM	> 25 µM	> 25 µM	–	–	–	–	–	–	–	–	–	–
CON(C1CCC2(C)C(CCC3C2CCC2(C)C(C4=CC(=O)OC4)CCC32O)C1)C1OC(CO)C(O)C(O)C1O [40α, D-taloside]	> 25 µM	> 25 µM	> 25 µM	> 25 µM	> 25 µM	> 25 µM	> 25 µM	> 25 µM	> 25 µM	> 25 µM	–	–	–	–	–	–	–	–	–	–
CON([C@H]1CC[C@@]2(C)[C@H](CC[C@@H]3[C@@H]2CC[C@]2(C)[C@@H](C4=CC(=O)OC4)CC[C@]32O)C1)[C@@H]1OC[C@@H](O)[C@H](O)[C@H]1O [24β, D-xyloside]	–	–	–	–	–	–	–	–	–	–	1.2 µM	1.8 µM	1.8 µM	1.8 µM	0.54 µM	2.1 µM	1.1 µM	1.8 µM	0.9 µM	0.82 µM
CON([C@H]1CC[C@@]2(C)[C@H](CC[C@@H]3[C@@H]2CC[C@]2(C)[C@@H](C4=CC(=O)OC4)CC[C@]32O)C1)[C@@H]1O[C@H](CF)[C@@H](O)[C@H](O)[C@H]1O [13β, 6-deoxy-6-fluoro-D-glucoside]	–	–	–	–	–	–	–	–	–	–	4.6 µM	6.2 µM	1.4 µM	3.4 µM	1.1 µM	4.7 µM	2 µM	4.8 µM	> 25 µM	5 µM
CON(C1CCC2(C)C(CCC3C2CCC2(C)C(C4=CC(=O)OC4)CCC32O)C1)C1OC(CO)C(O)C(O)C1O [39β, L-taloside]	–	–	–	–	–	–	–	–	–	–	0.96 µM	1.8 µM	1.1 µM	1.5 µM	1 µM	1.4 µM	0.89 µM	2.3 µM	0.5 µM	0.76 µM
CON([C@H]1CC[C@@]2(C)[C@H](CC[C@@H]3[C@@H]2CC[C@]2(C)[C@@H](C4=CC(=O)OC4)CC[C@]32O)C1)[C@@H]1O[C@H](CO)[C@@H](O)[C@H](O)[C@H]1F [12β, 2-deoxy-2-fluoro-D-glucoside]	–	–	–	–	–	–	–	–	–	–	8 µM	8 µM	2.9 µM	9 µM	2.6 µM	7 µM	3.7 µM	8 µM	> 25 µM	9 µM
CON(C1CCC2(C)C(CCC3C2CCC2(C)C(C4=CC(=O)OC4)CCC32O)C1)C1OC(CO)C(O)C(O)C1NC(C)=O [34β, N-acetyl-D-galactosaminoside]	–	–	–	–	–	–	–	–	–	–	17 µM	> 25 µM	20 µM	17 µM	6.4 µM	> 25 µM	> 25 µM	> 25 µM	> 25 µM	> 25 µM
D-arabinoside [33α]	> 25 µM	> 25 µM	> 25 µM	> 25 µM	> 25 µM	> 25 µM	> 25 µM	> 25 µM	> 25 µM	> 25 µM	–	–	–	–	–	–	–	–	–	–
L-rhamnoside [16β]	–	–	–	–	–	–	–	–	–	–	0.54 µM	1.8 µM	0.33 µM	4 µM	0.35 µM	3.3 µM	0.7 µM	0.9 µM	> 25 µM	0.17 µM
CON([C@H]1CC[C@@]2(C)[C@H](CC[C@@H]3[C@@H]2CC[C@]2(C)[C@@H](C4=CC(=O)OC4)CC[C@]32O)C1)[C@H]1O[C@@H](CO)[C@@H](O)[C@@H](O)[C@@H]1O [21β, L-galactoside]	–	–	–	–	–	–	–	–	–	–	1.3 µM	1.8 µM	2.6 µM	1.6 µM	1.6 µM	1.4 µM	0.9 µM	2.1 µM	1 µM	2.1 µM
CON(C1CCC2(C)C(CCC3C2CCC2(C)C(C4=CC(=O)OC4)CCC32O)C1)C1OC(CO)C(O)C(O)C1O [18α, D-alloside]	–	–	–	–	–	–	–	–	–	–	> 25 µM	> 25 µM	> 25 µM	> 25 µM	> 25 µM	> 25 µM	> 25 µM	> 25 µM	> 25 µM	> 25 µM
CON(C1CCC2(C)C(CCC3C2CCC2(C)C(C4=CC(=O)OC4)CCC32O)C1)C1OCC(O)C(O)C1O [6α, D-riboside]	–	–	–	–	–	–	–	–	–	–	> 25 µM	> 25 µM	> 25 µM	> 25 µM	> 25 µM	> 25 µM	> 25 µM	> 25 µM	> 25 µM	> 25 µM
CON(C1CCC2(C)C(CCC3C2CCC2(C)C(C4=CC(=O)OC4)CCC32O)C1)C1CC(O)C(O)C(CO)O1 [9α, 2-deoxy-D-galactoside]	–	–	–	–	–	–	–	–	–	–	> 25 µM	> 25 µM	> 25 µM	> 25 µM	> 25 µM	> 25 µM	> 25 µM	> 25 µM	> 25 µM	> 25 µM
CON([C@H]1CC[C@@]2(C)[C@H](CC[C@@H]3[C@@H]2CC[C@]2(C)[C@@H](C4=CC(=O)OC4)CC[C@]32O)C1)[C@@H]1O[C@H](CO)[C@H](O)[C@H](O)[C@H]1O [22β, D-galactoside]	–	–	–	–	–	–	–	–	–	–	0.6 µM	3 µM	1.6 µM	1.5 µM	0.8 µM	1.2 µM	0.97 µM	1.8 µM	1.5 µM	1.5 µM
CON(C1CCC2(C)C(CCC3C2CCC2(C)C(C4=CC(=O)OC4)CCC32O)C1)C1OC(CO)C(OC2OC(CO)C(O)C(O)C2O)C(O)C1O (stereo not drawn) [36α, lactoside]	> 25 µM	> 25 µM	> 25 µM	> 25 µM	> 25 µM	> 25 µM	> 25 µM	> 25 µM	> 25 µM	> 25 µM	–	–	–	–	–	–	–	–	–	–
CON(C1CCC2(C)C(CCC3C2CCC2(C)C(C4=CC(=O)OC4)CCC32O)C1)C1OCC(O)C(O)C1O [32α, L-arabinoside]	> 25 µM	> 25 µM	> 25 µM	> 25 µM	> 25 µM	> 25 µM	> 25 µM	> 25 µM	> 25 µM	> 25 µM	–	–	–	–	–	–	–	–	–	–
